In patent US20160243190A1, “DOSES AND METHODS FOR ADM[…]” (THERAVANCE BIOPHARMA A[…], LLC, priority 2015, published 2016):
Where two headings read alike, the source gives them in different places.

What was measured:
[1] = Logistic regression of outcomes as a function of steady state exposure (AUC0-24h) in Phase 3 subjects; assay type: in vivo, human
Experimental: Logistic regression analysis was used to parameterize the relationship between exposure (AUC0-24h) and the probability of 28-day all-cause mortality, AKI (defined as a 50% increase or greater than 0.5 mg/dL increase in serum creatinine) and clinical response at test of cure (TOC) for all Phase 3 subjects. The analysis was repeated for the individual HABP/VABP and cSSSI subpopulations.
Logistic regression analyses were conducted on the Phase 3 dataset using individually predicted exposure (AUC0-24h) and the outcomes of interest (28-day all-cause mortality, AKI, and clinical response at TOC). The analysis was performed using the generalized linear model function in R specifying a binomial variance and the logit link function.
The output produced for each logistic regression analysis includes indices of fit (i.e., null and deviance residuals, Akaike's information criterion and likelihood ratio test statistics to provide an assessment of model improvement as additional parameters are included in the model).

[2] = Population PK model for telavancin from Phase 1, 2 and 3 plasma concentrations; assay type: in vivo; conditions: both sexes, human, intravenous, final combined population PK model, read-out: CL, population estimate ± SE (converted)
[3] = Observed outcomes in Phase 3 HABP/VABP and cSSSI studies 0015, 0017, 0018, 0019; assay type: in vivo, human
Excerpt: The data for the simulations was based on 1771 subjects from Studies 0015, 0017, 0018 and 0019.
The data for the analysis was based upon 579 subjects from Studies 0015, 0017, 0018 and 0019. […]

[4] = Individually predicted steady state exposure in Phase 3 subjects with PK samples; assay type: in vivo; conditions: human, plasma, intravenous
Experimental: This analysis was designed to describe the relationship between exposure and response in patients treated with telavancin.
The predicted telavancin PK profiles for each subject were generated using the individually estimated PK parameters determined during the population PK analysis based on the administered dose as recorded in the dataset. The individually estimated PK parameters for each subject were determined based upon the specific intra- and inter-individual errors determined using nonlinear mixed effect analysis.

[5] = CART (classification and regression tree) analysis of exposure and 28-day mortality; assay type: in vivo, human; conditions: HABP/VABP subjects with renal impairment
Experimental: Values were determined for each simulated clinical trial (n=100), and presented as a mean and standard deviation.
The logistic regression analysis in HABP/VABP subjects with impaired renal function (CrCl≦50 mL/min) is consistent with the results of the CART analysis in HABP/VABP subjects with renal impairment.

[6] = Phase 3 HABP/VABP subjects with PK samples, n=196
[7] = Phase 3 Total with PK samples, n=579
[8] = Phase 3 all-treated HABP/VABP subjects, n=750
[9] = Phase 3 all-treated Total, n=1771
[10] = Phase 3 all-treated cSSSI subjects, n=1021
[11] = Phase 3 cSSSI subjects with PK samples, n=383

## CCCCCCCCCCNCCNC1(C)CC(OC2C(Oc3c4cc5cc3Oc3ccc(cc3Cl)[C@@H](O)[C@@H](NC(=O)[C@@H](CC(C)C)NC)C(=O)N[C@@H](CC(N)=O)C(=O)N[C@H]5C(=O)N[C@H]3C(=O)N[C@H](C(=O)N[C@H](C(=O)O)c5cc(O)c(CNCP(=O)(O)O)c(O)c5-c5cc3ccc5O)[C@H](O)c3ccc(c(Cl)c3)O4)OC(CO)C(O)C2O)OC(C)C1O (stereo partly shown) [telavancin, N^3″-[2-(decylamino)ethyl]-29-[[(phosphonomethyl)amino]methyl]vancomycin]
[1]; all HABP/VABP subjects
  Steady State AUC0-24 h coefficient, Estimate; clinical response at TOC: 4.50e−4
  Steady State AUC0-24 h coefficient, Pr(>|z|); clinical response at TOC: 0.495
[1]; all Phase 3 subjects
  Steady State AUC0-24 h coefficient, Estimate; clinical response at TOC: 4.29e−3
  Steady State AUC0-24 h coefficient, Pr(>|z|); clinical response at TOC: 0.368
[1]; all cSSSI subjects
  Steady State AUC0-24 h coefficient, Estimate; clinical response at TOC: 4.11e−4
  Steady State AUC0-24 h coefficient, Pr(>|z|); clinical response at TOC: 0.557
[2]
  clearance: 19.2 mL/min
[3]; [6]
  AKI, Y (number of subjects): Y = 39, N = 157
  CURE (number of subjects): CURE = 127,
  MORTALITY, Y (number of subjects): Y = 45, N = 151
[3]; [7]
  AKI, Y (number of subjects): Y = 78, N = 500,
  CURE (number of subjects): CURE = 449,
  MORTALITY, Y (number of subjects): Y = 46, N = 533
[3]; [8]
  AKI, Y (number of subjects): Y = 171, N = 542,
  CURE (number of subjects): CURE = 442,
  MORTALITY, Y (number of subjects): Y = 178, N = 572,
[3]; [9]
  AKI, Y (number of subjects): Y = 291, N = 1413,
  CURE (number of subjects): CURE = 1230,
  MORTALITY, Y (number of subjects): Y = 187, N = 1584
[3]; [10]
  AKI, Y (number of subjects): Y = 120, N = 871,
  CURE (number of subjects): CURE = 788,
  MORTALITY, Y (number of subjects): Y = 9, N = 1012,
[3]; [11]
  AKI, Y (number of subjects): Y = 39, N = 343,
  CURE (number of subjects): CURE = 322,
[4]; HABP/VABP subjects, n=196, read-out: AUC0-24, mean ± SD (range)
  AUC0-24 at steady state: 670 ± 231 µg·h/mL
[4]; Total, n=579, read-out: AUC0-24, mean ± SD (range)
  AUC0-24 at steady state: 671 ± 214 µg·h/mL
[4]; cSSSI subjects, n=383, read-out: AUC0-24, mean ± SD (range)
  AUC0-24 at steady state: 671 ± 206 µg·h/mL
[5]
  predicted exposure with greater likelihood of 28-day mortality (CART cutpoint): greater than 767 μg·hr/mL
